Experimental data: patent US10322115B2, “Amelioration of neural deficits associated with diabetes” (Neuralstem, Inc., priority 2016, dated 2019)

What was measured:
diabetic mice [1] = assay: Corneal nerve density (small fiber pathology) in STZ Type I diabetes model; format: in vivo, Swiss Webster mice
Protocol: (§1) Adult female Swiss Webster mice (20-25 grams) were used in the study. They were maintained in a room at 65-82° F. and relative humidity of 30-70% illuminated with fluorescent lighting on a 12 hour light/dark cycle. The animals were maintained 2-3 per cage with free access to dry food and municipal water. Diabetes was induced following an overnight fast by injection of streptozotocin (STZ) (90 mg/kg ip in 0.9% sterile saline) on two consecutive days. Hyperglycemia was confirmed 4 days later in a sample of blood obtained by tail prick using a strip operated reflectance meter. Animals were observed daily and weighed weekly during the study period.
(§2) Test compounds were evaluated, with treatment begun immediately after onset of diabetes (Part A) or after 7-8 weeks of diabetes in Part B. Each group started with 10 animals per group to allow identification of differences in nerve conduction, paw thermal latency and intra-epidermal nerve fiber (IENF) density between control and diabetic mice, assuming the routinely observed 20-40% difference between groups and measurement coefficients of variation of 10-20%.
(§3) PART A (onset) • Control+vehicle • Diabetic+vehicle • Diabetic+insulin (by implanted pellet) • Diabetic+NSI-158 • Diabetic+NSI-189 • Diabetic+NSI-190
(§4) PART B (7-8 weeks) • Control+vehicle • Diabetic+vehicle • Diabetic+NSI-150 • Diabetic+NSI-182 • Diabetic+NSI-183 • Diabetic+NSI-189
(§5) Insulin was supplied by an implanted insulin pellet replaced monthly as needed (LinBit™, LinShin, Canada) and the test compounds were supplied by oral gavage. The following measurements were made 24 hours after delivery of test compound: • Body weight: Weekly from onset of diabetes; • Blood glucose: At onset of diabetes and monthly thereafter; • MNCV (large motor fiber function): Before onset of diabetes and monthly thereafter; • Paw tactile response threshold (large sensory fiber function) by manual von Frey filament: Monthly from onset of diabetes; • Paw thermal response latency (small sensory fiber): Monthly from onset of diabetes; • Corneal nerve density (small sensory fiber structure): Images were collected before onset of diabetes and monthly thereafter; • Barnes maze performance (learning and memory): After 10 weeks of diabetes and at study termination; and • Object recognition test (memory): After 10 weeks of diabetes and at study termination.
(§6) The various procedures set forth above are those described in the art as follows: • Jolivalt, C. G., et al., Exp. Neurol. (2010) 223:422-431; • Jolivalt, C. G., et al., Diabetes Obes. Metab. (2011) 13:990-1000; • Jolivalt, C. G., et al., Neuroscience (2012) 202:405-412; and • Chen, D. K., et al., J. Peripher. Nerv. Syst. (2013) 18:306-315.

diabetic mice [2] = assay: Paw thermal response latency (paw response to heat) in STZ Type I diabetes model; format: in vivo, Swiss Webster mice
Protocol: as §1, §2, §3, §4, §5, §6

diabetic mice [3] = assay: Paw tactile response threshold by manual von Frey filament (tactile allodynia) in STZ Type I diabetes model; format: in vivo, Swiss Webster mice
Protocol: as §1, §2, §3, §4, §5, §6

diabetic mice [4] = assay: Nerve density in the sub-epidermal nerve plexus in STZ Type I diabetes model; format: in vivo, Swiss Webster mice
Protocol: as §1, §2, §3, §4, §5, §6

diabetic mice [5] = assay: Barnes maze test (learning and memory) in STZ Type I diabetes model; format: in vivo, Swiss Webster mice; conditions: for Barnes maze long-term retention / Barnes maze other parameters (initial acquisition, reinforced learning, short-term retention): Part A (treatment from onset)
Protocol: as §1, §2, §3, §4, §5, §6

diabetic mice [6] = assay: MNCV (large motor fiber function) in STZ Type I diabetes model; format: in vivo, Swiss Webster mice
Protocol: as §1, §2, §3, §4, §5, §6

diabetic mice [7] = assay: IENF density in isolated paw skin tissue in STZ Type I diabetes model; format: in vivo, Swiss Webster mice
Protocol: as §1, §2, §3, §4
Paw skin tissue was evaluated for IENF density in some cases.
as §6

[8] = system: db/db (BKS.Cg-Dock7^m+/+Lepr^db/J) mice; assay: Tactile allodynia in Type II diabetes model; format: in vivo; conditions: after 17-22 weeks of treatment
Description: (§7) Type II diabetes was modeled by db/db (BKS.Cg-Dock7^m+/+Lepr^db/J) mice. These mice were maintained in a manner similar to that set forth in Example 1.

[9] = system: db/db (BKS.Cg-Dock7^m+/+Lepr^db/J) mice; assay: Thermal hypoalgesia in Type II diabetes model; format: in vivo; conditions: after 17-22 weeks of treatment
Description: as §7

[10] = system: db/db (BKS.Cg-Dock7^m+/+Lepr^db/J) mice; assay: MNCV in Type II diabetes model; format: in vivo; conditions: after 17-22 weeks of treatment
Description: as §7

diabetic mice [11] = assay: Object recognition test (memory) in STZ Type I diabetes model; format: in vivo, Swiss Webster mice; conditions: Part A (treatment from onset), weeks 10 and 16
Protocol: as §1, §2, §3
PART B (7-8 weeks) • Control+vehicle • Diabetic+vehicle • Diabetic+NSI-150 • Diabetic+NSI-182 • Diabetic+NSI-183 • Diabetic+NSI-189 […]

diabetic mice [12] = assay: Systemic indices of diabetes (body weight, blood glucose, HbA1c) in STZ Type I diabetes model; format: in vivo, Swiss Webster mice; conditions: Part A, treatment from the outset
Protocol: as §1, §2, §3, §4
Insulin was supplied by an implanted insulin pellet replaced monthly as needed (LinBit™, LinShin, Canada) and the test compounds were supplied by oral gavage. […]

[13] = Part B (treatment after 7-8 weeks of diabetes)
[14] = Part A (treatment from onset), distal regions of small sensory fibers
[15] = Part A (treatment from onset), measured 24 hours after the last treatment
[16] = Part A (treatment from onset of diabetes), end of study period
[17] = Part A (treatment from onset), more proximal regions

Row | Compound | loss of corneal nerve density in the stroma (diabetic mice [1]; [13]) | paw thermal hypoalgesia (diabetic mice [2]; [13]) | paw tactile allodynia (diabetic mice [3]; [13]) | loss of corneal nerve density in Bowman's layer (diabetic mice [1]; [14]) | paw thermal hypoalgesia (diabetic mice [2]; Part A (treatment from onset)) | reduction of nerve density in the sub-epidermal nerve plexus (diabetic mice [4]; Part A (treatment from onset)) | Barnes maze long-term retention (diabetic mice [5]) | Barnes maze other parameters (initial acquisition, reinforced learning, short-term retention) (diabetic mice [5]) | paw tactile allodynia (diabetic mice [3]; [15]) | MNCV slowing (diabetic mice [6]; [16]) | reduction of IENF density in isolated tissue (diabetic mice [7]; Part A (treatment from onset)) | loss of corneal nerve density in Bowman's layer (diabetic mice [1]; [13]) | loss of corneal nerve density in the stroma (diabetic mice [1]; [17]) | further results
1 | C=CCNC(=O)c1cccnc1NCc1ccccc1OC [NSI-150] | no protective effect | did not | did not |  |  |  |  |  |  |  |  |  |  | 
2 | NC(=O)C1CCCN1C(=O)c1cccnc1NCC1CCCCC1 (centres unmarked) [NSI-158] |  |  |  | no protective effect | prevented paw thermal hypoalgesia | attenuated | improved long-term retention | without altering the other parameters | attenuated tactile allodynia | mild attenuation of MNCV slowing | attenuated |  |  | 
3 | O=C(NCc1nc2ccccn2c1NCC1CCCO1)Oc1ccccc1 (centres unmarked) [NSI-182] | no protective effect | did not | did not |  |  |  |  |  |  |  |  | protective |  | 
4 | O=C(COc1ccccc1)NCc1nc2ccccn2c1NCC1CCCO1 (centres unmarked) [NSI-183] | no protective effect | did not | did not |  |  |  |  |  |  |  |  | protective |  | 
5 | CC(C)CCNc1ncccc1C(=O)N1CCN(Cc2ccccc2)CC1 [NSI-189] | protective | prevented progression of paw thermal hypoalgesia | partially reversed paw tactile allodynia | attenuated the loss | prevented paw thermal hypoalgesia | attenuated | improved long-term retention | without altering the other parameters | attenuated tactile allodynia | mild attenuation of MNCV slowing | attenuated | protective | attenuated this loss | progressive development of tactile allodynia [8]: significantly reversed; progressive development of thermal hypoalgesia [9]: significantly reversed; reduction of nerve density in the sub-epidermal nerve plexus (diabetic mice [4]; [13]): protective; progressive development of MNCV slowing [10]: significantly reversed; MNCV slowing (diabetic mice [6]; [13]): partially reversed MNCV slowing; reduction of IENF density in isolated tissue (diabetic mice [7]; [13]): reversed
6 | CCN(CCNC(=O)c1cccnc1NCCC(C)C)Cc1cccnc1 [NSI-190] |  |  |  | no protective effect | prevented paw thermal hypoalgesia | attenuated | improved long-term retention | without altering the other parameters | attenuated tactile allodynia | mild attenuation of MNCV slowing |  |  | attenuated this loss | object recognition: impaired short-term memory (diabetic mice [11]): prevented this memory loss
7 | insulin [reference compound] |  |  |  | prevented | prevents this | prevented |  |  | attenuated | prevented | prevented |  | prevented | object recognition: impaired short-term memory (diabetic mice [11]): not prevented; Barnes maze impairments (initial acquisition and long-term retention) (diabetic mice [5]; Part A, insulin pellet): prevented all of this; hyperglycemia (diabetic mice [12]): reduced hyperglycemia; weight gain (diabetic mice [12]): partially restored weight gain; HbA1c levels (diabetic mice [12]; terminal): reduced HbA1c levels
